Test results: patent US20230355511A1, “BIO[…] AND SOLVENT COMPOSITIONS AND SYSTEMS FOR EXTENDED STORAGE AND […] OF ACTIVE PHARMACEUTICAL INGREDIENTS” (TOLMAR INTERNATIONAL LIMITED, priority 2020, published 2023)

Test: In vitro release of TU, jar technique, 1% CTAB in TRIS buffer pH 8.7, 37° C.
Type: in vitro ADME
Conditions: FIG. 14, Table 11 formulations, 200 mg depot in 200 mL media
Description: The in vitro release profiles of solidifying liquid polymer formulations containing TU were conducted using jar technique method with 1% CTAB surfactant in TRIS buffer, pH 8.7 at 37° C. Depots were made by injecting 200 mg of formulation into 200 mL release media. Samples were then periodically collected and analyzed for released drug content. […] Non-formulated TU with a particle size of 67 μm (i.e., with no polymer) were also analyzed as a reference. Additionally, a 20% TU non-solidifying liquid polymer comprising 30% of a 14.2 kDa PDLCL liquid polymer with 25% NMP and 25% PEG 300 was prepared as a reference.

## CCCCCCCCCCC(=O)O[C@H]1CC[C@H]2[C@@H]3CCC4=CC(=O)CC[C@]4(C)[C@H]3CC[C@]12C [non-formulated TU particles, testosterone undecanoate]
  TU released within the first 7 days: approximately 75%
